Earlier results, collected in patent publication US20220202699A1 (priority 2020, published 2022).

Tests used:
[1] = in vivo
[2] = tested on: Toll-like receptors (TLR); details: suppress innate immunity
[3] = tested on: influenza A virus
[4] = tested on: influenza A virus; remark: listed apart in the source
[5] = tested on: inflammatory cell infiltrates (neutrophils and lymphocytes); details: in vivo

Row | SMILES | bronchodilator effect [1] | functioning as deactivators of Toll-like receptors (TLR) [2] | binding of the influenza A virus to the surrogate host cells [3] | membrane convergence of influenza A and host cell ([3]; influenza A, model MDCK cells) | binding affinity for the influenza A virus [4] | virus-induced proinflammatory cytokines [5]
1 | CC(C)(C)NCC(O)c1ccc(O)c(CO)c1 (stereo not drawn) [Albuterol] | effective bronchodilator |  |  |  |  | 
2 | CCCCC/C=C\C/C=C\C/C=C\C/C=C\CCCC(=O)OC(COC(=O)CCCCCCCCCCCCCCCCC)COP(=O)(O)OC1C(O)C(O)C(O)C(O)C1O (stereo not drawn) [PI, phosphatidyl inositol] |  | deactivators of Toll-like receptors | prevent the binding | inhibited | high binding affinity | reduced
